The values below are quoted from earlier work in patent US8217079B2 (priority 2010, dated 2012).

This series deals with PVR-1 gene expression. Conditions: sub-micromolar concentrations; peripheral blood of JAK2^V617F PV patients; cited from earlier work.

For the compound `CCN(CC)Cc1ccc2cc(COC(=O)Nc3ccc(C(=O)NO)cc3)ccc2c1.Cl` [ITF2357, Diethyl-[6-(4-hydroxycarbamoyl-phenylcarbamoyloxymethyl)-naphthalen-2-ylmethyl]-ammonium chloride], the “PVR-1 gene expression in granulocytes” value is on record as “down-modulate”.
